PubChem BioAssay AID624339 (Sanford-Burnham Center for Chemical Genomics, 2012)
The source made the active and inactive calls. No rule for the calls is given here.

system: PAMPA artificial membrane permeability, pH 7.4; experiment: PAMPA permeability at pH 7.4 – biophysical, ADME assay (AID 624339); conditions: at 100 µM; active compounds read high

| Compound | permeability Pe |
| --- | --- |
| COc1ccccc1N(/N=C1\Sc2ccccc2C1=O)C(C)=O | 831 10-6 cm/s |
| Cc1cc(C)nc(-n2nc(C)c(Sc3ccc(F)cc3)c2N)n1 | 1020 10-6 cm/s |
| CCOc1ccc(NC(=S)N2CCC(C(O)(c3ccccc3)c3ccccc3)CC2)cc1 | 682 10-6 cm/s |
| COc1nc(-c2ccccc2)nnc1-c1ccccc1 | 1240 10-6 cm/s |
| O=C(c1ccccn1)N(Cc1cccs1)C1(C(=O)NC2CCCCC2)CCCCC1 | 1580 10-6 cm/s |
| O=C1NCCCc2c1oc1ccc(O)cc21 | 13 10-6 cm/s |
| c1ccc(-c2nnc(N3CCOCC3)nc2-c2ccccc2)cc1 | 1490 10-6 cm/s |
| Cc1ccc(N2CCN(S(=O)(=O)N3CCCCC3)CC2)c(C)c1 | 263 10-6 cm/s |
| O=C(O)c1ccc(N2C(=O)/C(=C/c3ccc(-c4ccc([N+](=O)[O-])cc4)o3)C=C2c2ccccc2)cc1 | < 0.8 10-6 cm/s (inactive) |
| CN(C)c1oc(-c2ccc(OCc3ccc(Cl)cc3)cc2)nc1C#N | 208 10-6 cm/s |
| O=c1[nH]c2c(s1)C(c1cccnc1)C1C3CCC(C3)C1S2 (stereo not drawn) | 830 10-6 cm/s |
| CCN1CCN(c2nc3ccccc3nc2C(C#N)C(=O)OC2CCCCC2)CC1 (stereo not drawn) | 2130 10-6 cm/s |
| Brc1ccc2c(c1)CN1CCCC1=N2 | 786 10-6 cm/s |
| O=S(=O)(NC1CCCCC1N1CCOCC1)c1ccc(Cl)cc1 (stereo not drawn) | 815 10-6 cm/s |
| O=c1[nH]c(SCc2ccc(Cl)cc2)nc2c1CCC2 | 631 10-6 cm/s |
| COc1ccc(OC)c(S(=O)(=O)Nc2cnc3ccccc3c2)c1 | 706 10-6 cm/s |
| CCCc1nc2c(=O)n(C)c(=O)nc-2n(C)n1 | 0 10-6 cm/s (inactive) |
| Cc1cc2c(s1)c1cnn(Cc3ccccc3F)c(=O)c1n2C | 913 10-6 cm/s |
| CC1CCCN(C(C(=O)Nc2ccc3c(c2)OCCO3)c2ccccc2)C1 (stereo not drawn) | 2010 10-6 cm/s |
| Cn1cnc([N+](=O)[O-])c1Sc1ncnc2nc[nH]c12 | 3 10-6 cm/s (inactive) |
| Cc1cccc(-n2cnc3cc(C(=O)N4CCCCC4)ccc32)c1 | 748 10-6 cm/s |

| Compound | permeability Pe |
| --- | --- |
| NC(=O)C1CCN(c2nc(-c3ccc(Br)cc3)cs2)CC1 | 284 10-6 cm/s |
| COc1ccc(CNCc2cccc3ccccc23)cc1 | 1130 10-6 cm/s |
| CCCn1ncc(CN2CCCC(C(=O)c3cccc(OC(C)C)c3)C2)c1C (stereo not drawn) | 1310 10-6 cm/s |
| O=c1c(O)c(-c2cc(O)c(O)c(O)c2)oc2cc(O)cc(O)c12 | 1.7 10-6 cm/s (inactive) |
| COc1ccc(C2CC(c3ccccc3)=NN2c2ccc(S(N)(=O)=O)cc2)cc1 (stereo not drawn) | 278 10-6 cm/s |
| CCOC(=O)C(C)Oc1cccc2c(=O)n(CC(=O)Nc3ccc4c(c3)OCCO4)ccc12 (stereo not drawn) | 441 10-6 cm/s |
| Cc1ccnc(NC(=O)CCCOc2cc(=O)n(C)c3ccccc23)c1 | 510 10-6 cm/s |
| c1ccc(CC2CCN(c3ncnc4sccc34)CC2)cc1 | 1020 10-6 cm/s |
| CC(=O)c1ccc(N2CCN(S(=O)(=O)c3ccc4c(c3)CC(=O)N4)CC2)cc1 | 194 10-6 cm/s |
| COc1ccc(CSc2nc(C)cc(=O)[nH]2)cc1 | 165 10-6 cm/s |
| O=C(CSc1cccc2cccnc12)N1CCCC1 | 101 10-6 cm/s |
| Cc1ccc(S(=O)(=O)n2c(N)nc3ccccc32)cc1 | 370 10-6 cm/s |
| Cc1nc(SCc2nc3ccccc3[nH]2)c2oc3ccccc3c2n1 | 720 10-6 cm/s |
| O=C(COc1ccccc1Br)NCCc1nc2ccccc2[nH]1 | 795 10-6 cm/s |
| COc1ccc(C2c3c(ncn(CCN4CCOCC4)c3=N)Oc3ccc4ccccc4c32)cc1OC (stereo not drawn) | 1440 10-6 cm/s |
| COc1ccc(S(=O)(=O)N2CCN(S(=O)(=O)c3ccc4c(c3)OCCO4)CC2)cc1 | 562 10-6 cm/s |
| Cc1cc(C)n(-c2nc(NCCCO)c3c4c(sc3n2)CCCC4)n1 | 1130 10-6 cm/s |
| Cc1cc(C(=O)CN2C(=O)CCC2=O)c(C)n1Cc1ccccc1 | 250 10-6 cm/s |
| Cc1cc(-c2nnc3n2CCCCC3)c(C)n1-c1ccccc1 | 393 10-6 cm/s |
| COc1ccc(OC)c(-c2nnc3n2N=C(c2ccc(OC)c(OC)c2)CS3)c1 | 590 10-6 cm/s |
| Cn1nnnc1Sc1ncnc2scc(-c3ccccc3)c12 | 973 10-6 cm/s |

| Compound | permeability Pe |
| --- | --- |
| CN1CSC(=S)N(C)C1 | 18 10-6 cm/s |
| COc1ccc(S(=O)(=O)n2nc(OC(=O)c3ccccc3)cc2N)cc1 | 459 10-6 cm/s |
| O=[N+]([O-])c1ccc(CN2CCOCCOCCN(Cc3ccc([N+](=O)[O-])cc3)CCOCC2)cc1 | 1080 10-6 cm/s |
| CCCc1cc(C(=O)N(C2CCCCC2)C2CCCCC2)no1 | 0.01 10-6 cm/s (inactive) |
| Oc1cc(O)cc(/C=C/c2ccc(O)c(O)c2)c1 | 1.2 10-6 cm/s (inactive) |
| C/C=C/Cn1c(SCCCc2ccccc2)nc2c1c(=O)[nH]c(=O)n2C | 1340 10-6 cm/s |
| CS(=O)(=O)c1ccc(C(=O)OCC(=O)NC23CC4CC(CC(C4)C2)C3)cc1[N+](=O)[O-] | 443 10-6 cm/s |
| O=C(O)c1cccnc1SCCc1ccccc1 | 17 10-6 cm/s |
| Cc1ccc(NS(=O)(=O)c2ccc3c(c2)CCC(=O)N3)cc1C | 622 10-6 cm/s |
| Brc1cc2c(cc1C1Nc3ccccc3C3C=CCC31)OCO2 (stereo not drawn) | 37 10-6 cm/s |
| O=c1oc2c(O)c(O)cc3c(=O)oc4c(O)c(O)cc1c4c23 | 3.1 10-6 cm/s (inactive) |
| O=C(COC(=O)C12CC3CC(CC(C3)C1)C2)NCc1ccco1 | 195 10-6 cm/s |
| CCc1nnc(NC(=O)c2ccc(NS(=O)(=O)c3ccccc3)cc2)s1 | 163 10-6 cm/s |
| O=C(CCNS(=O)(=O)c1cccc2nsnc12)N1CCN(c2ccccn2)CC1 | 143 10-6 cm/s |
| Cc1ccc(NC(=O)CCC(=O)N/N=C/c2ccc([N+](=O)[O-])o2)cc1C | 37 10-6 cm/s |
| CC(C)C(=O)NC(c1ccco1)c1ccc2cccnc2c1O (stereo not drawn) | 286 10-6 cm/s |
| CCOc1ccc(-c2nc(-c3ccncc3)no2)cc1OCC | 1030 10-6 cm/s |
| Cc1ccc(-n2c(N)c(C#N)c(-c3ccccc3)c(C#N)c2=O)cc1 | 67 10-6 cm/s |
| O=S1(=O)Nc2c(ccc3cccnc23)-c2ccccc21 | 75 10-6 cm/s |
| O=C(O)CCC(NS(=O)(=O)c1ccc(-c2ccccc2)cc1)C(=O)O (stereo not drawn) | < 0.4 10-6 cm/s (inactive) |
| CCc1oc2ccccc2c1C(=O)c1cc(Br)c(O)c(Br)c1 | 71 10-6 cm/s |

| Compound | permeability Pe |
| --- | --- |
| O=c1c2ccccc2[se]n1-c1ccccc1 | 448 10-6 cm/s |
| N#Cc1ccccc1CSc1nc2ncc(Br)cc2[nH]1 | 144 10-6 cm/s |
| CCCC(=O)Nc1cccc(NC(=O)c2ccccc2Br)c1 | 190 10-6 cm/s |
| COc1ccc(N(C(=O)CCl)C(C(=O)NCCc2ccccc2)c2cccs2)cc1Cl (stereo not drawn) | 568 10-6 cm/s |
| N#C/C(=C\c1ccc([N+](=O)[O-])o1)c1nc2ccccc2[nH]1 | 145 10-6 cm/s |
| CCCOc1ccc(-c2nc(OC)c3ccccc3n2)cc1 | 26 10-6 cm/s |
| CCCN1CNc2c(c(=O)[nH]c(=S)n2CCc2ccc(OC)c(OC)c2)C1 | 75 10-6 cm/s |
| Cc1ccc(S(=O)(=O)NCc2ccc(C(=O)NCCN(Cc3ccccc3)C(C)C)cc2)cc1 | 1480 10-6 cm/s |
| COC(=O)c1ccccc1NC(=O)c1ccc(F)cc1 | 629 10-6 cm/s |
| O=C1CCCC2=C1C1(CCCC1)N=C(Nc1nc3ccccc3o1)N2 | 436 10-6 cm/s |
| C=CCn1c(SCC(=O)c2ccc(O)c(O)c2)nnc1-c1ccccc1OC | 88 10-6 cm/s |
| CN(C)c1nc(N)nc(CSc2nnnn2-c2cccc3ccccc23)n1 | 268 10-6 cm/s |
| O=C1C2CC=CCC2C(=O)N1c1n[nH]c(-c2ccccc2)n1 (stereo not drawn) | 63 10-6 cm/s |
| COc1cc(NC(=O)c2cc(C3CC3)on2)c(OC)cc1Cl | 720 10-6 cm/s |
| c1ccc2c(Nc3nnc(-c4ccncc4)s3)cccc2c1 | 211 10-6 cm/s |
| CCCN(CCC)CCNC(=O)C1CCN(Cc2nc(-c3ccc(Cl)cc3)oc2C)CC1 | 1860 10-6 cm/s |
| O=C(O)c1ccccc1OCc1ccccc1Br | 22 10-6 cm/s |
| Cc1ccc(C)c(OCCn2cc(C(=O)O)c3ccccc32)c1 | 256 10-6 cm/s |

same assay, conditions: at 100 µM; with 20% ACN; active compounds read high

| Compound | permeability Pe |
| --- | --- |
| COc1ccc(Sc2ccc(NC(=O)c3ccccc3Cl)cc2C#N)cc1 | 487 10-6 cm/s |
| COc1cccc(-c2nc(-c3ccc(NC(=O)Cc4ccccc4OC)cc3)no2)c1 | 863 10-6 cm/s |
| Cc1ccccc1N1CCN(c2ncnc3c2cnn3Cc2ccc(Cl)cc2)CC1 | 1100 10-6 cm/s |
| CSc1nc(-c2ccc(C)cc2)nc(C(Cl)Cl)n1 | 154 10-6 cm/s |
| CN(C)C1=C(Cl)C(=O)N(c2ccc(Cl)c(Cl)c2)C1=O | 381 10-6 cm/s |
| Cc1ccc(C)c(NS(=O)(=O)c2cc(C(=O)Nc3ccccc3-c3ccccc3)ccc2Cl)c1 | 253 10-6 cm/s |
| Cc1ccc(C(=O)n2c3ccccc3c3ccccc32)cc1 | 352 10-6 cm/s |
